# Experimental data from patent US20020055174A1, “Complex for transferring an anionic substance of interest into a cell” (priority 2000, published 2002).
# Ends that are not written are not given here.
# How the values were obtained:
# [1] = system: plasmid pTG11236; assay: Gel retardation assay (DNA binding)
# Protocol: 3μg of the plasmid pTG11236 were incubated with increasing amounts of the respective peptide in a final volume of 30 μl with 0.9% NaCl. After 20 min of incubation at room temperature, 6 μl 5× loading buffer (glycerol and bromphenol blue in TAE buffer) were added and 10 μl of these solutions were analyzed on a 1% agarose gel in the presence of ethidium bromide.
# The ability of ppTG1 peptide to complex DNA was analyzed by gel retardation assays. […] After 20 minutes incubation at room temperature, loading buffer was added and 10 μl of the resulting solution were analyzed on a 1% agarose gel.
# ppTG1 derivatives as they are indicated in Materials and Methods, were tested for their capacity to bind plasmid DNA by gel retardation assays.
# [2] = system: HeLa cells; assay: Transfection in vitro, luciferase plasmid pTG11236; type: cell-based
# Protocol: Cells were plated on 24 well plates at a density of 4×10^4 (293-EBNA ) or 7×10^4 (HeLa, Renca) cells/well in DMEM supplemented with 10% FCS. The next day, the medium was replaced by 200 μl serum-free DMEM and plasmid (pTG11056 or pTG11236)/peptide complexes or plasmid/peptide/lipid complexes were prepared in 30 μl 0.9% NaCl or 5% glucose. After 20 min at room temperature these complexes were added to the cells which were then incubated for 2-3 h at 37° C. and 5% CO2 before 1 ml serum-containing DMEM was added. Approximately 20-hours later, cells were lysed by addition of 100 μl 1× Promega lysis buffer, 20 μl of the lysates were analysed for luciferase activity. Proteins were quantified with the bicinchonic acid (BCA) colorimetric method (Smith, Anal. Biochem. 150 (1985), 76-85).
# In another experiment, 7×10^4 HeLa cells, seeded on 24-well plates the day before transfection, were transfected with 0.5 μg or 0.05 μg pTG11236, complexed with Lipofectin or ppTG1. The plasmid/peptide complexes were prepared in 30 μl of 5% glucose or 0.9% NaCl and added to the cells (200 μl serum-free medium) after 20 min at room temperature. Serum-containing medium was added after 3 h, the cells were harvested the next day.
# A comparison of the effect on transfection efficiency of ppTG1 and JTS-1-K13 was carried out in HeLa cells. Complexes of 0.5 μg or 0.05 μg pTG11236 were formed with increasing amounts the respective peptide.
# A comparison of ppTG1 and KALA was carried out in HeLa and CHO cells. 5×10^4 cells were seeded on 24 well plates. The next day, cells were transfected with 500 ng and 50 ng of pTG11236, complexed with ppTG1 or KALA in 30 μl 0.9% NaCl. The charge ratio +/− varied from 1, 2, 3, 4, 7 to 10. Cells were harvested 20 h after transfection and lysis was obtained in 100 μl Promega lysis buffer. Luciferase activity and total protein concentrations in 20 μl were determined.
# HeLa cells were seeded at a density of 6×10^4 cells on 24 well plates. The next day, cells were incubated with 200 μl serum-free medium, 30 μl of plasmid (50 ng)/peptide/lipid mixtures were added and incubated for 3 h at 37° C. in 5% CO2. 1 ml of DMEM+10% FCS was then added. The next day, the medium was removed and cells were washed with 500 μl of PBS and subsequently treated with 100 μl of Promega lysis buffer. Plates were stored at −80° C. until luciferase activity was measured of 20 μl of the cell lysate. The protein assay was performed using the Pierce BCA kit.
# JTS1 was dissolved to 1 mg/ml in 1 mM NaOH and mixed with DNA diluted in 5% glucose. ppTG1 was then added to this solution. The pcTG90/DOPE ppTG1 mixtures were prepared as described in Example 6. Transfection assays were performed on HeLa cells with 50 ng of plasmid as described in Example 6.
# The series of ppTG1 derivatives listed in Material and Methods were tested for their gene transfer efficiencies in Hela cells. 6×10^4 cells were transfected with 50 ng pTG11236 complexed with increasing amounts of peptide. Luciferase activity was analyzed day 1 after transfection. The results are shown in FIG. 10B (ppTG20, ppTG21), FIG. 10C(ppTG25, ppTG26, ppTG27), FIG. 10D (ppTG28 to ppTG33), FIG. 10E (PEG-ppTG1 and PEG-ppTG20), FIG. 10F (ppTG22 to ppTG24) and FIG. 10G (ppTG20-D).
# [3] = Liposome leakage assay, POPC/cholesterol 3:2 liposomes; conditions: for liposome leakage activity, in words: POPC/chol 3:2 liposomes
# Protocol: Increasing amounts of the indicated peptides were incubated with POPC/Cholesterol (3:2 mol/mol) liposomes for 30 min at RT. Emitted fluorescence was plotted against peptide concentration. […] B) Liposome leakage activity with complexes of ppTG1 and the plasmid pTG11236 at pH7.
# 1-Palmitoyl-2-Oleoyl-phosphatidylcholine (POPC) liposomes were prepared by the repeated freeze-thaw method followed by extrusion (Olson et al., 1979, Biochim. Biophys. Acta 557, 19-23). Ten μ-moles of POPC in chloroform were placed in a glass tube and solvent was evaporated under reduced pressure using a Labconco Rapidvap vortex evaporator (Uniequip, Germany). The resulting lipid film was hydrated with 0.5 ml of an aqueous solution of calcein (lOOmM calcein, 3.75 eq. NaOH, 50mM NaCl). The lipid suspension was sonicated until the solution became clear using a sonic water bath (Bransonic 221, Branson Ultrasonics Corp., USA). Five cycles of freeze-thaw were performed before liposomes were extruded by 4 passages through 200 nm pore diameter polycarbonate membranes (Nuclepore, Costar, Mass., USA). Free calcein was removed from calcein encapsulated into liposomes by gel exclusion chromatography using a Sephadex G-50 column (3 cm×14 cm) and a 200 mM NaCl, 25 mM HEPES, pH 7.3 solution as the elution buffer. The final lipid concentration was determined by a phosphorus assay (Bartlett, 1959, J. Biol. Chem. 234, 466-469). Liposomes' diameter was determined by dynamic laser light scattering using a Coulter N4 Plus submicron particle sizer (Coultronics France S. A, France). Measurements were performed within a 3 nm-10000 nm size window with a fixed 90° scattered light angle.
# The liposome leakage assay was carried out as described in Planck et al. (1994, J. Biol. Chem. 269, 12918-12924). The liposome stock solution was diluted to a lipid concentration of 45 μM in 1.8× assay buffer (360 mM NaCl, 36 mM sodium citrate, pH 5 and pH 7). A 1:5 serial dilution of the tested peptide was carried out in a 96-well microtiter plate by transferring 20 μl of the peptide solution from one well to the next well and diluting with 80 μl H2O. 100 μl of the liposome solution was added in each well (final lipid concentration: 25 μM) and, after 30 min at room temperature, was assayed for fluorescence at 535 nm (excitation: 485 nm) on a microtiter plate fluorescence spectrometer (WALLAC, 1420 multilabel counter Victor). These conditions are appropriate to analyze fluorescein and as close as possible to the appropriate excitation/ emission profile of calcein (495 nm /515 nm). The value for 100% leakage was obtained by addition of 1 μl of a 10% Triton X-100 solution. Leakage activity was plotted against peptide concentration.
# Liposome leakage activities were analyzed on liposomes consisting of POPC and cholesterol at a molar ratio of 3:2 (mol/mol).
# Complexes of ppTG1 with plasmid DNA pTG11236 were tested for liposome leakage activity on POPC/chol 3:2 liposomes.
# The series of ppTG1 derivatives as they are listed in Materials and Methods was tested for liposome leakage activity on POPC/chol 3:2 liposomes at pH7.
sequence,measurement,setting,value
GLFKALLKLLKSLWKLLLKA,amount of peptide at which 50% of the DNA is complexed,"[1]; 3 μg pTG11236, 1 μg = 0.35 nmol",1 µg
same,amount of peptide giving retardation of plasmid,"[1]; 3 μg plasmid DNA (0.8 pmol), 4 μg peptide = 1.4 nmol",4 µg
same,luciferase activities,"[2]; 0.05 μg pTG11236, complexes in 0.9% NaCl",higher luciferase activities than observed for Lipofectin formulations
same,luciferase activities,"[2]; 0.5 μg or 0.05 μg pTG11236 with 1.17 μg or 0.117 μg ppTG1, charge ratio 1.8",comparable luciferase activities as observed for DNA formulated with Lipofectin
same,"more efficient than the complex comprising KALA, best case",[2]; HeLa,3000 fold
same,"liposome leakage activity, in words",[3]; pH5,could efficiently liberate calcein
same,"liposome leakage activity, in words",[3]; pH7,could efficiently liberate calcein
same,liposome leakage of peptide/plasmid complexes,"[3]; complexed with pTG11236, P/N 5 or 10, pH7",comparable to free ppTG1
same,liposome leakage of peptide/plasmid complexes,"[3]; complexed with pTG11236, P/N of 1 or 0.8, pH7",slightly reduced
same,destabilization of POPC/Chol liposomes,"[3]; peptide alone or complexed with plasmid DNA, summary",destabilizes efficiently
